Results published in ChEMBL document CHEMBL1201862, “PubChem BioAssay data set” (2004).
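Compound exposure: 48 hours, 5 concentrations, 96-well plates. Abbreviation: GI50, concentration required for 50% inhibition of growth.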 Activity calls are given as the source filed them. No stated cut-off is given here; in the data, active = GI50 up to about 1.1 µM and inactive = higher.

Experiments:
Assay in all cases: NCI anticancer screen, dose series, 48 h
A498 = tested on: A498
A549 = tested on: A549
CAKI-1 = tested on: CAKI-1
CCRF-CEM = tested on: CCRF-CEM
COLO 205 = tested on: COLO 205
DLD-1 = tested on: DLD-1
DMS-114 = tested on: DMS-114
DMS-273 = tested on: DMS-273
EKVX = tested on: EKVX
HCC 2998 = tested on: HCC 2998
HCT-116 = tested on: HCT-116
HCT-15 = tested on: HCT-15
HL-60 = tested on: HL-60
HOP-18 = tested on: HOP-18
HOP-62 = tested on: HOP-62
HOP-92 = tested on: HOP-92
HT-29 = tested on: HT-29
IGROV-1 = tested on: IGROV-1
K562 = tested on: K562
KM-20L2 = tested on: KM-20L2
KM12 = tested on: KM12
LOX IMVI = tested on: LOX IMVI
M19-MEL = tested on: M19-MEL
MCF7 = tested on: MCF7
MOLT-4 = tested on: MOLT-4
Malme-3M = tested on: Malme-3M
NCI-H226 = tested on: NCI-H226
NCI-H23 = tested on: NCI-H23
NCI-H460 = tested on: NCI-H460
NCI-H522 = tested on: NCI-H522
NCI/ADR-RES = tested on: NCI/ADR-RES
OVCAR-3 = tested on: OVCAR-3
OVCAR-4 = tested on: OVCAR-4
OVCAR-5 = tested on: OVCAR-5
OVCAR-8 = tested on: OVCAR-8
RPMI-8226 = tested on: RPMI-8226
RXF 393 = tested on: RXF 393
SF-268 = tested on: SF-268
SF-295 = tested on: SF-295
SF-539 = tested on: SF-539
SK-MEL-28 = tested on: SK-MEL-28
SK-MEL-2 = tested on: SK-MEL-2
SK-MEL-5 = tested on: SK-MEL-5
SK-OV-3 = tested on: SK-OV-3
SN12C = tested on: SN12C
SNB-19 = tested on: SNB-19
SNB-75 = tested on: SNB-75
SNB-78 = tested on: SNB-78
U-251 = tested on: U-251
UACC-257 = tested on: UACC-257
UACC-62 = tested on: UACC-62
UO-31 = tested on: UO-31
XF498 = tested on: XF498
SW-620 = tested on: SW-620
786-0 = tested on: 786-0
ACHN = tested on: ACHN
LXFL 529 = tested on: LXFL 529
M14 = tested on: M14
SR = tested on: SR
TK-10 = tested on: TK-10

Measured: GI50

O=C(NC(Cc1ccc(I)cc1)C(=O)O)c1ccc(I)cc1 (configuration not stated)
99.1 µM: HCT-15
inactive: A498 > 100 µM | A549 98.6 µM | CAKI-1 > 100 µM | CCRF-CEM 48.2 µM | COLO 205 > 100 µM | DLD-1 > 100 µM | DMS-114 35.8 µM | DMS-273 94.8 µM | EKVX > 51.2 µM | HCC 2998 > 41.7 µM | HCT-116 54.1 µM | HL-60 > 62.1 µM | HOP-18 > 100 µM | HOP-62 72.3 µM | HOP-92 66.7 µM | HT-29 > 100 µM | IGROV-1 > 24.4 µM | K562 59.6 µM | KM-20L2 > 94.8 µM | KM12 > 100 µM | LOX IMVI > 100 µM | M19-MEL 72.3 µM | MCF7 > 50.4 µM | MOLT-4 51.5 µM | Malme-3M 67.1 µM | NCI-H226 > 100 µM | NCI-H23 > 80.2 µM | NCI-H460 57.9 µM | NCI-H522 38.8 µM | NCI/ADR-RES > 100 µM | OVCAR-3 41.5 µM | OVCAR-4 51.4 µM | OVCAR-5 > 100 µM | OVCAR-8 > 74.8 µM | RPMI-8226 40.3 µM | RXF 393 > 100 µM | SF-268 > 60 µM | SF-295 > 100 µM | SF-539 > 74 µM | SK-MEL-28 53.3 µM | SK-MEL-2 > 80.4 µM | SK-MEL-5 > 75.3 µM | SK-OV-3 > 100 µM | SN12C > 100 µM | SNB-19 54.7 µM | SNB-75 21.2 µM | SNB-78 > 89.3 µM | U-251 62.1 µM | UACC-257 > 100 µM | UACC-62 29.6 µM | UO-31 14.5 µM | XF498 > 66.4 µM

COc1ccc(/C=C2\CCNC2=O)cc1
inactive: A498 > 53.7 µM | A549 > 100 µM | CAKI-1 > 100 µM | CCRF-CEM > 100 µM | COLO 205 > 100 µM | DLD-1 > 100 µM | DMS-114 > 100 µM | DMS-273 > 100 µM | EKVX > 29.4 µM | HCC 2998 > 48.5 µM | HCT-116 > 100 µM | HL-60 > 100 µM | HOP-18 > 100 µM | HOP-62 40.6 µM | HOP-92 > 100 µM | HT-29 > 100 µM | IGROV-1 > 100 µM | K562 > 100 µM | KM-20L2 > 100 µM | KM12 > 100 µM | LOX IMVI > 100 µM | M19-MEL > 100 µM | MCF7 > 100 µM | MOLT-4 > 100 µM | Malme-3M > 100 µM | NCI-H226 > 100 µM | NCI-H23 > 100 µM | NCI-H460 > 100 µM | NCI-H522 > 100 µM | NCI/ADR-RES > 100 µM | OVCAR-3 > 100 µM | OVCAR-4 > 100 µM | OVCAR-5 > 100 µM | OVCAR-8 > 100 µM | RPMI-8226 > 100 µM | SF-268 > 100 µM | SF-295 > 100 µM | SF-539 > 76.6 µM | SK-MEL-28 > 100 µM | SK-MEL-2 > 100 µM | SK-MEL-5 > 100 µM | SK-OV-3 > 100 µM | SN12C > 100 µM | SNB-19 > 100 µM | SNB-75 > 47.1 µM | SNB-78 > 100 µM | SW-620 > 100 µM | U-251 > 100 µM | UACC-257 > 100 µM | UACC-62 > 100 µM | UO-31 75.2 µM | XF498 > 100 µM
> 100 µM: HCT-15

CC(C)(C)c1cc(C(=O)O)c(C(c2ccccc2)c2ccccc2C(=O)O)c(C(=O)O)c1 (configuration not stated)
> 100 µM: HCT-15
inactive: 786-0 > 100 µM | A549 > 100 µM | ACHN 20.7 µM | CAKI-1 > 100 µM | CCRF-CEM > 100 µM | COLO 205 33.8 µM | DLD-1 > 100 µM | DMS-114 > 100 µM | DMS-273 > 100 µM | EKVX > 100 µM | HCT-116 > 100 µM | HL-60 > 100 µM | HOP-18 > 100 µM | HOP-62 > 100 µM | HT-29 > 100 µM | K562 > 100 µM | KM-20L2 > 100 µM | KM12 > 100 µM | LOX IMVI > 100 µM | LXFL 529 > 100 µM | M14 > 100 µM | MOLT-4 > 100 µM | Malme-3M > 100 µM | NCI-H226 35 µM | NCI-H23 > 100 µM | NCI-H460 > 100 µM | NCI-H522 2.52 µM | OVCAR-3 > 100 µM | OVCAR-4 19.9 µM | OVCAR-5 > 100 µM | OVCAR-8 > 100 µM | RXF 393 > 100 µM | SF-268 > 100 µM | SF-295 > 100 µM | SF-539 > 100 µM | SK-MEL-28 > 100 µM | SK-MEL-2 > 100 µM | SK-OV-3 21.7 µM | SN12C 21.9 µM | SNB-19 > 100 µM | SNB-75 21.7 µM | SNB-78 > 100 µM | SR > 100 µM | SW-620 > 100 µM | TK-10 > 100 µM | U-251 11.3 µM | UACC-257 > 100 µM | UACC-62 > 100 µM | UO-31 > 100 µM | XF498 > 100 µM
